Where “and” joins values, the source holds several entries; their conditions need not be identical. Equal entries are not always repeated.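 Method: 48-hour compound exposure of cells in 96-well plates, five concentrations, linear interpolation of endpoints. Abbreviation: GI50, concentration required for 50% inhibition of growth. At the TGI there is no net growth.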 A value given as a limit tells only on which side of the number the result lay.

Among the test systems are HCT-116 colon; PC-3 prostate; OVCAR-8 ovarian; SNB-19 CNS; U251 CNS; ACHN renal; SN12C renal; SF-295 CNS; CAKI-1 renal; SF-268 CNS.
Holding throughout (experiment): growth of human tumour cells (NCI), 48 h

In the case of `c1cc(CSSCc2ccncc2)ccn1`, the TGI was above 100 µM in the experiment on HCT-116 colon; above 100 µM with PC-3 prostate; above 100 µM in the experiment on OVCAR-8 ovarian; above 100 µM with SNB-19 CNS; above 70.9 µM with U251 CNS; above 100 µM with ACHN renal. For the same compound, the TGI was above 100 µM with SN12C renal, above 100 µM in the experiment on SF-295 CNS, above 100 µM in the experiment with CAKI-1 renal and above 94.3 µM in the experiment with SF-268 CNS.

With `COC(C(=O)C(O)C(C)O)C1Cc2cc3cc(OC4CC(OC5CC(O)C(O)C(C)O5)C(O)C(C)O4)c(C)c(O)c3c(O)c2C(=O)C1OC1CC(OC2CC(O)C(OC3CC(C)(O)C(O)C(C)O3)C(C)O2)C(O)C(C)O1` (stereo not drawn), the GI50 is 0.0112 µg/mL and 0.015 µg/mL in the experiment on HCT-116 colon; 0.0194 µg/mL and 0.0396 µg/mL in the experiment on PC-3 prostate; 0.0112 µg/mL and 0.000822 µg/mL in the experiment with OVCAR-8 ovarian; 0.0402 µg/mL in the experiment on SNB-19 CNS; 0.0112 µg/mL and 0.000643 µg/mL in the experiment on U251 CNS; 0.0162 µg/mL and 0.0326 µg/mL in the experiment on ACHN renal. Moreover, the GI50 is 0.0112 µg/mL and 0.0011 µg/mL in the experiment with SN12C renal; 0.0185 µg/mL and 0.000389 µg/mL in the experiment with SF-295 CNS; 0.0112 µg/mL and 0.000362 µg/mL in the experiment with CAKI-1 renal; 0.0167 µg/mL and 0.00113 µg/mL with SF-268 CNS. In addition, the TGI with SNB-19 CNS is above 150 µg/mL; in the experiment with ACHN renal, 112 µg/mL and > 150 µg/mL; in the experiment on CAKI-1 renal, 0.0484 µg/mL and 0.0414 µg/mL.

As to `O=C(N=Nc1c(O)[nH]c2ccccc12)c1oc2ccccc2c1CN1CCN(c2ccccc2)CC1`, the GI50 was 1.55 µM with HCT-116 colon; 1.59 µM with PC-3 prostate; 1.66 µM in the experiment with OVCAR-8 ovarian; 1.96 µM in the experiment on SNB-19 CNS; 1.97 µM in the experiment with U251 CNS; 1.02 µM in the experiment on ACHN renal. In addition, the GI50 was 1.3 µM with SN12C renal, 5.11 µM with SF-295 CNS, 2.42 µM in the experiment with CAKI-1 renal and 1.97 µM with SF-268 CNS. Also, the TGI in the experiment with HCT-116 colon was found to be 5.34 µM; in the experiment with PC-3 prostate, 7.23 µM; with OVCAR-8 ovarian, 13.4 µM; with SNB-19 CNS it was 8.5 µM; in the experiment with U251 CNS, 8.67 µM; with ACHN renal, 2.53 µM. Also, the TGI in the experiment with SN12C renal was 3.9 µM; in the experiment on SF-295 CNS, 12.5 µM; in the experiment with CAKI-1 renal it was 9.61 µM; in the experiment on SF-268 CNS, 13.8 µM.

For the compound `N#CC1(Nc2ccc(-c3ccc(NC4(C#N)CCCC4)cc3)cc2)CCCC1`, the TGI with HCT-116 colon, with PC-3 prostate, in the experiment with OVCAR-8 ovarian, in the experiment on SNB-19 CNS, in the experiment on U251 CNS and with ACHN renal was above 100 µM in each case. The TGI with SN12C renal, with SF-295 CNS, in the experiment on CAKI-1 renal and with SF-268 CNS was above 100 µM in each case.

As to `Cc1[nH]c(C(=O)Nc2ccccc2OC2CCNCC2)c(Cl)c1Cl`, the GI50 in the experiment on HCT-116 colon is 0.837 µM; in the experiment on PC-3 prostate, 1.39 µM; in the experiment with OVCAR-8 ovarian, 1.07 µM; with SNB-19 CNS, 1.25 µM; with U251 CNS it was 0.849 µM; in the experiment with ACHN renal, 0.995 µM. For the same compound, the GI50 was 0.86 µM with SN12C renal, 0.917 µM in the experiment on SF-295 CNS, 0.781 µM with CAKI-1 renal and 0.76 µM in the experiment with SF-268 CNS. In addition, the TGI in the experiment on HCT-116 colon came to 1.59 µM; in the experiment with PC-3 prostate, 5.23 µM; in the experiment with OVCAR-8 ovarian, 2.4 µM; in the experiment on SNB-19 CNS, 3.44 µM; in the experiment with U251 CNS, 1.61 µM; with ACHN renal, 2.05 µM. Moreover, the TGI was found to be 1.59 µM with SN12C renal, 1.68 µM with SF-295 CNS, 2.11 µM with CAKI-1 renal and 1.65 µM in the experiment on SF-268 CNS.

`C=C1CCC2C3(C)COC(c4c(OC)cccc4OC)OC3CCC2(C)C1C/C=C1/C(=O)OCC1O` (stereo not drawn): the GI50 in the experiment with HCT-116 colon was 1.64 µM; in the experiment on PC-3 prostate it was 2.66 µM; with OVCAR-8 ovarian, 3.09 µM; in the experiment on SNB-19 CNS it was 14.6 µM; in the experiment with U251 CNS, 1.91 µM; with ACHN renal, 2.38 µM. Besides, the GI50 with SN12C renal was 2.33 µM; in the experiment on SF-295 CNS it was 5.28 µM; in the experiment on CAKI-1 renal it was 1.57 µM; in the experiment with SF-268 CNS, 3.7 µM. Further, the TGI with HCT-116 colon came out at 3.11 µM; in the experiment on PC-3 prostate, 11.7 µM; in the experiment with OVCAR-8 ovarian it was 11.5 µM; with SNB-19 CNS, 29.9 µM; with U251 CNS it was 4.36 µM; in the experiment with ACHN renal, 5.85 µM. Besides, the TGI in the experiment on SN12C renal was 8.27 µM; in the experiment on SF-295 CNS, 18.1 µM; with CAKI-1 renal, 3.48 µM; in the experiment with SF-268 CNS, 12.4 µM.

With `COC1=C(Br)C(O)C2(C=C1Br)CC(C(=O)NCCCCNC(=O)C1=NOC3(C=C(Br)C(OC)=C(Br)C3O)C1)=NO2` (stereo not drawn), the TGI with HCT-116 colon is 49.3 µM; with PC-3 prostate, 62.8 µM; in the experiment on OVCAR-8 ovarian, above 100 µM; in the experiment on SNB-19 CNS, above 100 µM; in the experiment with U251 CNS it was above 100 µM; with ACHN renal it was 75.1 µM. Further, the TGI with SN12C renal was above 100 µM; with SF-295 CNS, 90.5 µM; with CAKI-1 renal, above 100 µM; in the experiment with SF-268 CNS, 45.1 µM.

In the case of `COc1ccc(-c2nc(Nc3ccc(-c4nc5ccccc5[nH]4)cc3)nc(N3CCOCC3)n2)cc1`, the GI50 was 1.9 µM in the experiment on HCT-116 colon; 2.39 µM in the experiment on PC-3 prostate; 3.26 µM in the experiment with OVCAR-8 ovarian; 3.49 µM with SNB-19 CNS; 2.04 µM in the experiment on U251 CNS; 2.55 µM in the experiment with ACHN renal. For the same compound, the GI50 with SN12C renal is 3.19 µM; with SF-295 CNS, 1.59 µM; with CAKI-1 renal it was 1.98 µM; in the experiment on SF-268 CNS, 2.82 µM. Besides, the TGI was 3.54 µM with HCT-116 colon; 6.66 µM with PC-3 prostate; 10.8 µM in the experiment on OVCAR-8 ovarian; above 100 µM in the experiment with SNB-19 CNS; 13.6 µM in the experiment on U251 CNS; above 100 µM in the experiment with ACHN renal. Besides, the TGI in the experiment with SN12C renal is 23 µM; with SF-295 CNS, 4.7 µM; in the experiment on CAKI-1 renal it was 5.02 µM; in the experiment with SF-268 CNS, 26.5 µM.

Consider `CCC(C)[C@H](NC(=O)NC(=O)NC(=O)CI)C(=O)OC` (stereo partly drawn), for which the GI50 with HCT-116 colon is 6.05 µM; in the experiment on PC-3 prostate it was 12.2 µM; in the experiment with OVCAR-8 ovarian, 13.6 µM; with SNB-19 CNS, 15.4 µM; with U251 CNS, 14.8 µM; in the experiment on ACHN renal, 2.11 µM. In addition, the GI50 in the experiment with SN12C renal was 4.28 µM; in the experiment with SF-295 CNS it was 15.2 µM; in the experiment with CAKI-1 renal, 1.41 µM; in the experiment with SF-268 CNS, 12.6 µM. Further, the TGI with HCT-116 colon stood at 18.3 µM; with PC-3 prostate, 26.7 µM; with OVCAR-8 ovarian it was 29.3 µM; with SNB-19 CNS it was 31.6 µM; in the experiment on U251 CNS, 27.9 µM; with ACHN renal it was 4.43 µM. Also, the TGI in the experiment on SN12C renal worked out at 20.4 µM; in the experiment with SF-295 CNS it was 28.9 µM; in the experiment on CAKI-1 renal it was 2.78 µM; in the experiment on SF-268 CNS, 28.5 µM.

The values above are taken from PubChem BioAssay (NCI).
